What was measured:
Type in all cases: in vivo
[1] = system: AVEFA: wild oats (Avena fatua); assay: Post-emergent Test I herbicidal activity; settings: post-emergence, 336 h, read-out: Visual Growth Reduction (%) 14 Days After Application, AVEFA
Description: (§1) Post-emergent Test I Seeds test species were obtained from commercial suppliers and planted into a 13 cm diameter-round pot containing soil-less media mix (metro-mix 360®, Sun Gro Horticulture). Postemergence treatments were planted 8-12 days prior to application and cultured in a greenhouse equipped with supplemental light sources to provide a 16 h photoperiod at 24-29° C. All pots were surface irrigated.
(§2) A weighted amount, determined by the highest rate to be tested, of each compound was dissolved in 1.3 mL acetone-DMSO (97:3, v/v) and diluted with 4.1 mL water-isopropanol-crop oil concentrate (78:20:2, v/v/v) containing 0.02% Triton X-155 to obtain concentrated stock solutions. Additional application rates were obtained by serial dilution of the high rate solution into a solution containing appropriate volume of 97:3 v/v mixture of acetone and DMSO and appropriate volume of an aqueous mixture of water, isopropyl alcohol, crop oil concentrate (78:20:2, v/v/v) containing 0.02% Triton X-155.
(§3) Formulated compounds were applied using a DeVilbiss® compressed air sprayer at 2-4 psi. Following treatment, pots were returned to the greenhouse for the duration of the experiment. All pots were sub-irrigated as need to provide optimum growing conditions. All pots were fertilized one time per week by subirrigating with Peters Peat-Lite Special® fertilizer (20-10-20).
(§4) […] All evaluations were made visually on a scale of 0 to 100 where 0 represents no activity and 100 represents complete plant death. Visual assessments of plant injury were made based on growth reduction, discoloration, leaf deformity and necrosis.

[2] = system: ECHCG: barnyardgrass (Echinochloa crus-galli); assay: Post-emergent Test I herbicidal activity; settings: post-emergence, 336 h, read-out: Visual Growth Reduction (%) 14 Days After Application, ECHCG; for pest or weed control at 4000 g/ha: 4 kg ai/ha; for pest or weed control at 4040 g/ha: 4.04 kg ai/ha
Description: as §1, §2, §3, §4

[3] = system: HELAN: sunflower (Helianthus annuus); assay: Post-emergent Test I herbicidal activity; settings: post-emergence, 336 h, read-out: Visual Growth Reduction (%) 14 Days After Application, HELAN; for pest or weed control at 4000 g/ha: 4 kg ai/ha; for pest or weed control at 4040 g/ha: 4.04 kg ai/ha
Description: as §1, §2, §3, §4

[4] = system: IPOHE: ivyleaf morningglory (Ipomoea hederecea); assay: Post-emergent Test I herbicidal activity; settings: post-emergence, 336 h, read-out: Visual Growth Reduction (%) 14 Days After Application, IPOHE; for pest or weed control at 4000 g/ha: 4 kg ai/ha; for pest or weed control at 4040 g/ha: 4.04 kg ai/ha
Description: as §1, §2, §3, §4

[5] = system: SETFA: giant foxtail (Setaria faberi); assay: Post-emergent Test I herbicidal activity; settings: post-emergence, 336 h, read-out: Visual Growth Reduction (%) 14 Days After Application, SETFA; for pest or weed control at 4000 g/ha: 4 kg ai/ha; for pest or weed control at 4040 g/ha: 4.04 kg ai/ha
Description: as §1, §2, §3, §4

[6] = system: BROTE: downy brome (Bromus tectorum); assay: Post-emergent Test III, herbicidal activity in wheat and barley; settings: for pest or weed control at 35 g/ha: 35 g ai/ha; for pest or weed control at 70 g/ha: 70 g ai/ha; for GR50 BROTE / GR80 BROTE: probit analysis, 21 days after application; for GR50 BROTE: dose for growth reduction of 50 percent; for GR80 BROTE: dose for growth reduction of 80 percent
Outline: (§5)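 Plants at the second to third true-leaf stage, grown in a greenhouse at about 18/17 °C with a 14 h photoperiod, were sprayed post-emergence at 187 L/ha with the high rate and ½× to 1/16× serial dilutions in an acetone/DMSO/crop-oil/surfactant carrier. Injury was rated visually at 21 d on a 0–100% scale, and GR20–GR90 were derived by probit analysis.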

[7] = system: VERPE: bird's-eye speedwell (veronica persica); assay: as above; settings: Table 8, 21 d; for GR50 VERPE: dose for 50 percent growth reduction; for GR50 VERPE / GR80 VERPE: probit analysis; for GR80 VERPE: dose for 80 percent growth reduction; for pest or weed control at 35 g/ha: 35 g ai/ha; for pest or weed control at 70 g/ha: 70 g ai/ha
Outline: as §5

[8] = system: AMARE: redroot pigwseed (Amaranthus retroflexus); assay: Post-emergent Test I herbicidal activity; settings: post-emergence, read-out: Visual Growth Reduction (%), AMARE
Description: as §1, §2, §3, §4

[9] = Bromus tectorum, post-emergence, 504 h, read-out: Visual Growth Reduction (%) 21 Days After Application BROTE
[10] = Veronica persica, post-emergence, 504 h, post-emergent, read-out: Visual Growth Reduction (%) 21 Days After Application VERPE

Compound `COC(=O)c1nc(-c2ccc(Br)c(F)c2F)c(F)c(N)c1Cl` [Compound 109, methyl 4-amino-6-(4-bromo-2,3-difluorophenyl)-3-chloro-5-fluoropicolinate] has a pest or weed control at 4000 g/ha ([1]; 4 kg ai/ha) of 75 to 84%, a pest or weed control at 4000 g/ha [2] of 95 to 100% and a pest or weed control at 4000 g/ha [3] of 95 to 100%. The pest or weed control at 4000 g/ha [4] was 85 to 94%, the pest or weed control at 4000 g/ha [5] was 95 to 100% and the pest or weed control at 35 g/ha [6, 9] was 75 to 84%. The pest or weed control at 70 g/ha [6, 9] was 85 to 94%, the “GR50 BROTE” value [6] was 14 g ai/ha and the “GR80 BROTE” value [6] was 41 g ai/ha.

`Nc1cc(-c2ccc(I)cc2F)nc(C(=O)O)c1Cl` [Compound 124] was tested, and the “GR50 VERPE” value [7] was 20 g ai/ha, the “GR80 VERPE” value [7] was 39 g ai/ha and the pest or weed control at 35 g/ha [7, 10] was 75 to 84%. The pest or weed control at 70 g/ha [7, 10] was 85 to 94%.

In the case of `Nc1c(Cl)c(C(=O)O)nc(-c2ccc(I)c(F)c2)c1Cl` [Compound 145, 4-Amino-3,5-dichloro-6-(3-fluoro-4-iodophenyl)picolinic acid], the “GR50 VERPE” value [7] is reported as 1 g ai/ha, the “GR80 VERPE” value [7] is reported as 10 g ai/ha and the pest or weed control at 35 g/ha [7, 10] is reported as 85 to 94%. It also gave a pest or weed control at 70 g/ha [7, 10] of 85 to 94% and a pest or weed control at 140 g/ha ([7]; Veronica persica, post-emergence, 504 h, 140 g ai/ha, post-emergent, read-out: Visual Growth Reduction (%) 21 Days After Application VERPE) of 95 to 100%.

`COC(=O)c1nc(-c2ccc(Br)c(F)c2)nc(N)c1OC` [Compound 171, Methyl 6-amino-2-(4-bromo-3-fluorophenyl)-5-methoxypyrimidine-4-carboxylate] was tested, and the “GR50 VERPE” value [7] was 4 g ai/ha, the “GR80 VERPE” value [7] was 27 g ai/ha and the pest or weed control at 35 g/ha [7, 10] was 85 to 94%. For the same compound, the pest or weed control at 70 g/ha [7, 10] was 85 to 94%.

For `COC(=O)c1nc(-c2cccc(F)c2F)c(F)c(N)c1Cl` [Compound 199], the pest or weed control at 4000 g/ha ([8]; 4 kg ai/ha) was 95 to 100%, the pest or weed control at 4000 g/ha [2] was 60 to 74% and the pest or weed control at 4000 g/ha [3] was 95 to 100%. The pest or weed control at 4000 g/ha [4] was 75 to 84% and the pest or weed control at 4000 g/ha [5] was 85 to 94%.

In the case of `COC(=O)c1nc(-c2ccccc2F)c(F)c(N)c1Cl` [Compound 206], the pest or weed control at 4040 g/ha ([8]; 4.04 kg ai/ha) is reported as 95 to 100%, the pest or weed control at 4040 g/ha [2] is reported as 0 to 29% and the pest or weed control at 4040 g/ha [3] is reported as 95 to 100%. It also gave a pest or weed control at 4040 g/ha [4] of 75 to 84% and a pest or weed control at 4040 g/ha [5] of 0 to 29%.

Work on `C=Cc1c(C(=O)O)nc(-c2ccc(Cl)c(F)c2)c(F)c1N` [Compound 214] yielded a pest or weed control at 4040 g/ha ([1]; 4.04 kg ai/ha) of 60 to 74%, a pest or weed control at 4040 g/ha [2] of 95 to 100% and a pest or weed control at 4040 g/ha [3] of 95 to 100%. It also gave a pest or weed control at 4040 g/ha [4] of 95 to 100%, a pest or weed control at 4040 g/ha [5] of 85 to 94% and a pest or weed control at 35 g/ha [6, 9] of 0 to 29%. The pest or weed control at 70 g/ha [6, 9] was 0 to 29%, the pest or weed control at 140 g/ha ([6]; Bromus tectorum, post-emergence, 504 h, 140 g ai/ha, read-out: Visual Growth Reduction (%) 21 Days After Application BROTE) was 0 to 29% and the “GR50 BROTE” value [6] was over 140 g ai/ha. For the same compound, the “GR80 BROTE” value [6] was over 140 g ai/ha.

For `C=Cc1c(C(=O)OC)nc(-c2ccc(Cl)c(F)c2)c(F)c1N` [Compound 215, methyl 4-amino-6-(4-chloro-3-fluorophenyl)-5-fluoro-3-vinylpicolinate], the pest or weed control at 3960 g/ha ([1]; 3.96 kg ai/ha) was 30 to 44%, the pest or weed control at 3960 g/ha ([2]; 3.96 kg ai/ha) was 85 to 94% and the pest or weed control at 3960 g/ha ([3]; 3.96 kg ai/ha) was 95 to 100%. For the same compound, the pest or weed control at 3960 g/ha ([4]; 3.96 kg ai/ha) was 95 to 100% and the pest or weed control at 3960 g/ha ([5]; 3.96 kg ai/ha) was 0 to 29%.
